Assay results from ChEMBL document CHEMBL3217613, “Novel thalidomide analogues with potent NFB and TNF expression inhibition” (Medchemcomm, 2011).

Assays:
Format in all cases: cell-based
[1] = biological target: T1, Nuclear factor NF-kappa-B complex (Homo sapiens) (UniProt Q00653+P19838+Q04206); test: Inhibition of NFkappaB in human FRT-Jurkat cells expressing GFP assessed as reduction of TNF expression at 10 uM after 24 hrs by flow cytometry relative to control
Jurkat = test: Cytotoxicity against human FRT-Jurkat cells assessed as reduction of cell viability by measuring cleaved caspase 3 at 10 uM by flow cytometer
[2] = biological target: T1, Nuclear factor NF-kappa-B complex (Homo sapiens); test: Inhibition of NFkappaB in human FRT-Jurkat cells expressing GFP assessed as reduction of TNF expression at 100 uM after 24 hrs by flow cytometry relative to control
[3] = biological target: T1, Nuclear factor NF-kappa-B complex (Homo sapiens); test: Ratio of thalidomide to compound for inhibition of NFkappaB in human FRT-Jurkat cells expressing GFP assessed as reduction of TNF expression at 10 uM

T1 sequence (P19838 whole entry, looked up): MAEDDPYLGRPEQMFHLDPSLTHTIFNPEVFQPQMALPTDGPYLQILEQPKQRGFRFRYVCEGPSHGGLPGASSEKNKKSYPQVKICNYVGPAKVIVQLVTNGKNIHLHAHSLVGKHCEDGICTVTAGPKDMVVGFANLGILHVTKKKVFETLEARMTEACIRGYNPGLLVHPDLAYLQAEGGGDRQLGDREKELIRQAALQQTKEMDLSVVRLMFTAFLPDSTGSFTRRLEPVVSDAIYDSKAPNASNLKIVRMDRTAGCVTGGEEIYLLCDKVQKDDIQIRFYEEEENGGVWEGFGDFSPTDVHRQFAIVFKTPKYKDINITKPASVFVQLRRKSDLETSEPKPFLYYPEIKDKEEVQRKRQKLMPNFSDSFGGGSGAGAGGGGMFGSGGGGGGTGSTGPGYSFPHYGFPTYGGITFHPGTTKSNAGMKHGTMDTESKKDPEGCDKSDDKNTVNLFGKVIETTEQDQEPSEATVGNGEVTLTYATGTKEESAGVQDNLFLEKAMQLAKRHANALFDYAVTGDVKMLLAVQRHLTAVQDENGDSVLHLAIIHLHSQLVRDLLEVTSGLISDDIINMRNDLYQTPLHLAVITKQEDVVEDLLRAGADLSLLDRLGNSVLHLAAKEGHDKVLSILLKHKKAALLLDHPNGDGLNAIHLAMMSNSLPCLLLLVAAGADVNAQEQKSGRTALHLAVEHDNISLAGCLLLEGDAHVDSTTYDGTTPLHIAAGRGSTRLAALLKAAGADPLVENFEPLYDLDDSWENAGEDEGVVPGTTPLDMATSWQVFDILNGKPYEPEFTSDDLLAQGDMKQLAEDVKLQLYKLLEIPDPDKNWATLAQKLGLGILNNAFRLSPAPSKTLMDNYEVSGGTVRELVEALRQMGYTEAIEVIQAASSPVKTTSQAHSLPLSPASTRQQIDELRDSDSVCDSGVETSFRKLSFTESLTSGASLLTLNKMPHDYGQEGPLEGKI
T1 sequence (Q00653 whole entry, looked up): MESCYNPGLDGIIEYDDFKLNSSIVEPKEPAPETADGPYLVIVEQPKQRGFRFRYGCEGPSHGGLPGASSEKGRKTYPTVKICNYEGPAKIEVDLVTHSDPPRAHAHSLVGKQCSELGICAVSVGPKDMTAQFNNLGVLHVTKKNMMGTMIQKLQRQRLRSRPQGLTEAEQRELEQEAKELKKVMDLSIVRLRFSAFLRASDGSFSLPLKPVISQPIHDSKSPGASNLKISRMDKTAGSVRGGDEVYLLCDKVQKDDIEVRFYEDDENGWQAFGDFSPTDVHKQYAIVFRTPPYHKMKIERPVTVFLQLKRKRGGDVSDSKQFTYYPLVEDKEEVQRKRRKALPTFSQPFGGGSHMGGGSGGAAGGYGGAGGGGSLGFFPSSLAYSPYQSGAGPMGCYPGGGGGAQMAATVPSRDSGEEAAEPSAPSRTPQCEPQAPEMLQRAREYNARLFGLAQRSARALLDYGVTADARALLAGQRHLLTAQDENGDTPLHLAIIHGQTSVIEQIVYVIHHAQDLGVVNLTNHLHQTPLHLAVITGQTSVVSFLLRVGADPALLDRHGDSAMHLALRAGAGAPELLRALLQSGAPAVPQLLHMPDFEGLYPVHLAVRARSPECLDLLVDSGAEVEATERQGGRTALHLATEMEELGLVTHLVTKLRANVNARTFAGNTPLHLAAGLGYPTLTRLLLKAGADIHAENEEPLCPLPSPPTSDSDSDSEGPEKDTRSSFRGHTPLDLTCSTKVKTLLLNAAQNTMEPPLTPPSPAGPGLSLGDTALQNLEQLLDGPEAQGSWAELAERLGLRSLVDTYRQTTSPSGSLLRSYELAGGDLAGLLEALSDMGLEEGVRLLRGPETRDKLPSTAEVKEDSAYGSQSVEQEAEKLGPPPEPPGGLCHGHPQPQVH
T1 sequence (Q04206 whole entry, looked up): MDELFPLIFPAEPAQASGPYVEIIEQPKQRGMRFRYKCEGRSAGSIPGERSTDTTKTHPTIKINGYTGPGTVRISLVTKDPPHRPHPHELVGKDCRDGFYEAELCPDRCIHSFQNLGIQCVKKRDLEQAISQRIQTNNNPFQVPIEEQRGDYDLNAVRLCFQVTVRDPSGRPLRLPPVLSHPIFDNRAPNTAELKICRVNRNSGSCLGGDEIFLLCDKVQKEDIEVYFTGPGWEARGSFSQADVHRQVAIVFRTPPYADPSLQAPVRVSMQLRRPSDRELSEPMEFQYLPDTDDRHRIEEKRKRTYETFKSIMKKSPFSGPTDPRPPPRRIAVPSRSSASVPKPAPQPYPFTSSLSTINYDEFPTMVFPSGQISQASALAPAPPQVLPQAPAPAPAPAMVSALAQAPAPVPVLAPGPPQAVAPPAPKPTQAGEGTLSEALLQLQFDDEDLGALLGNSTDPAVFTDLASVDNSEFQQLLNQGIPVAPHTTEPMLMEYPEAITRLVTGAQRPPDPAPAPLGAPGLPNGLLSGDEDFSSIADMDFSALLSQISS

SMILES	inhibition [1]	Activity (Jurkat)	inhibition [2]	Ratio [3]
Cc1ccccc1Nc1ccc2c(c1)C(=O)N(C1CCC(=O)NC1=O)C2=O (configuration not stated)	2%			
CC(=O)c1ccc(Nc2ccc3c(c2)C(=O)N(C2CCC(=O)NC2=O)C3=O)cc1 (configuration not stated)	-2%			
COc1ccc(Nc2cccc3c2C(=O)N(C2CCC(=O)NC2=O)C3=O)cc1 (configuration not stated)	13%	89%		
O=C1CCC(N2C(=O)c3ccccc3C2=O)C(=O)N1 (racemic)	2%		4%	
Cc1ccc(Nc2ccc3c(c2)C(=O)N(C2CCC(=O)NC2=O)C3=O)cc1 (configuration not stated)	5%			
Cc1ccccc1Nc1cccc2c1C(=O)N(C1CCC(=O)NC1=O)C2=O (configuration not stated)	7%	89%		
CCCc1ccc(Nc2cccc3c2C(=O)N(C2CCC(=O)NC2=O)C3=O)cc1 (configuration not stated)	23%	89%		
CCc1ccc(Nc2cccc3c2C(=O)N(C2CCC(=O)NC2=O)C3=O)cc1 (configuration not stated)	17%	89%		
O=C1CCC(N2C(=O)c3ccc(Nc4ccccn4)cc3C2=O)C(=O)N1 (configuration not stated)	9%			
CCCCCc1ccc(Nc2cccc3c2C(=O)N(C2CCC(=O)NC2=O)C3=O)cc1 (configuration not stated)	23%	89%		
CCCCCc1ccc(Nc2ccc3c(c2)C(=O)N(C2CCC(=O)NC2=O)C3=O)cc1 (configuration not stated)	12%			
CCOC(=O)c1ccc(Nc2ccc3c(c2)C(=O)N(C2CCC(=O)NC2=O)C3=O)cc1 (configuration not stated)	5%			
CC(=O)c1ccc(Nc2cccc3c2C(=O)N(C2CCC(=O)NC2=O)C3=O)cc1 (configuration not stated)	2%	89%		
O=C1CCC(N2C(=O)c3ccc(Nc4ccc(O)cc4)cc3C2=O)C(=O)N1 (configuration not stated)	4%			
O=C1CCC(N2C(=O)c3cccc(Nc4ccc(O)cc4)c3C2=O)C(=O)N1 (configuration not stated)	4%	89%		
CN(c1ccccc1)c1ccc2c(c1)C(=O)N(C1CCC(=O)NC1=O)C2=O (configuration not stated)	-2%			
Nc1cccc2c1CN(C1CCC(=O)NC1=O)C2=O (configuration not stated)	4%		6%	
CC(C)(C)c1ccc(Nc2cccc3c2C(=O)N(C2CCC(=O)NC2=O)C3=O)cc1 (configuration not stated)	36%	89%		
O=C1CCC(N2C(=O)c3ccc(Nc4ccccc4)cc3C2=O)C(=O)N1 (configuration not stated)	6%		17%	2
CC(C)(C)c1ccc(Nc2ccc3c(c2)C(=O)N(C2CCC(=O)NC2=O)C3=O)cc1 (configuration not stated)	17%			
O=C1CCC(N2C(=O)c3cccc(Nc4ccccc4)c3C2=O)C(=O)N1 (configuration not stated)	4%	89%	16%	
COc1ccc(Nc2ccc3c(c2)C(=O)N(C2CCC(=O)NC2=O)C3=O)cc1 (configuration not stated)	29%			
Cc1ccc(Nc2cccc3c2C(=O)N(C2CCC(=O)NC2=O)C3=O)cc1 (configuration not stated)	9%	89%		
CC(C)c1ccc(Nc2ccc3c(c2)C(=O)N(C2CCC(=O)NC2=O)C3=O)cc1 (configuration not stated)	11%			
CCOC(=O)c1ccc(Nc2cccc3c2C(=O)N(C2CCC(=O)NC2=O)C3=O)cc1 (configuration not stated)	10%	89%		
CCc1ccc(Nc2ccc3c(c2)C(=O)N(C2CCC(=O)NC2=O)C3=O)cc1 (configuration not stated)	5%			
CC(C)c1ccc(Nc2cccc3c2C(=O)N(C2CCC(=O)NC2=O)C3=O)cc1 (configuration not stated)	19%	89%		
O=C1CCC(N2C(=O)c3cccc(Nc4ccccn4)c3C2=O)C(=O)N1 (configuration not stated)	1%	89%		
CCCc1ccc(Nc2ccc3c(c2)C(=O)N(C2CCC(=O)NC2=O)C3=O)cc1 (configuration not stated)	10%			
